Laboratory results published in patent publication US5491229A, “Rapamycin derivative” (SmithKline Beecham PLC, priority 1991, dated 1996).

Key:
[1] = system: Spleen cells from BDF1 female mice; experiment: Mitogenesis Assay for Immunosuppressive Activity (concanavalin A-stimulated spleen cells, 3H-thymidine); type: cell-based; conditions: Concanavalin A (5 μg/ml), 72 hours
Method: Spleen cells from BDF1 female mice were established in RPMI with 10% fetal calf serum at 5×10^6 /ml. One hundred […] aliquots of this suspension (5×10^5 cells) were dispensed into 96-well round-bottomed microtiter plates (Linbro, Flow Laboratories). Concanavalin A (5 μg/ml) was added as the mitogenic stimulus, and the final volume in the microtiter wells was adjusted to 200 μL with RPMI. Cell cultures were incubated for 72 hours at 37 degrees C. in a 5% CO2 atmosphere and pulsed with 0.5μ Ci ^3 H-thymidine (specific activity […]) for the last 18 hour culture. The cells were harvested on an automated multiple sample harvester and cell-associated radioactivity counted in a Beckman liquid scintillation counter. The results are expressed as the mean values derived from quadruplicate measurements. Cell viability was determined by trypan blue exclusion after 72 hours of incubation. Compounds to be tested were added to the microtiter plates at the appropriate dilutions prior to the addition of cells.

Saccharomyces cerevisiae = experiment: Assay for Antifungal Activity (yeast agar well zone of inhibition); type: cell-based; conditions: 48 hours
Method: Yeast organisms (Saccharomyces cerevisiae) in logarithmic growth were plated on complete agar medium (YPD). The compound was dissolved in an appropriate aqueous or organic solvent and placed in wells punched in the agar. Plates were incubated for 48 hours and zones of inhibition were measured.
IC12^(nM) refers to the concentration of drug in the antifungal assay which produces a 12 mm zone of inhibition.

- IC50 ([1]; Mus musculus, 37 degrees C., 3H-thymidine): 15 nM
Structure (SMILES): CO[C@H]1C[C@@H]2CC[C@@H](C)C(O)(CC(=O)N3CCCC[C@H]3C(=O)O[C@H]([C@H](C)C[C@@H]3CC[C@@H](O)[C@H](OC)C3)CC(=O)[C@H](C)/C=C(\C)[C@@H](O)[C@@H](OC)C(=O)[C@H](C)C[C@H](C)/C=C/C=C/C=C/1C)O2 [14-methylene rapamycin]
- immunosuppressive / immunomodulatory activity (in words) [1]: has both antifungal and immunomodulatory activity
- IC (12 mm zone of inhibition) (Saccharomyces cerevisiae; Saccharomyces cerevisiae on YPD agar, read-out: Yeast IC12 (concentration of drug in the antifungal assay which produces a 12 mm zone of inhibition)): 0.013 µM
- antifungal activity (in words) (Saccharomyces cerevisiae; Saccharomyces cerevisiae): has both antifungal and immunomodulatory activity
